According to ChEMBL document CHEMBL1221345, “Cytotoxic flavonoids from the leaves of Cryptocarya chinensis” (J Nat Prod, 2010):
*1 amine or outer side, *2 acyl side, *3 side chain or, on linkers, in order; H or OH if unused. Where a SMILES comes first, the peptide text is derived from it. Bridges are numbered along the chain shown (N, C = ends). Roman numbers before positions name the chains, in order. [ ]: non-standard residue; d: D form. Actinocin(1to9) = Cc1c2oc3c(C)ccc(C(=O)[*:2])c3nc-2c(C(=O)[*:1])c(N)c1=O; NMeV = CN[C@H](C(=O)O)C(C)C; Sar = CNCC(=O)O

Columns and labels:
Format in all cases: functional, cell-based
MCF7 = assay: Cytotoxicity against human MCF7 cells after 72 hrs by MTS reduction assay; settings: MCF7, 72 h
SF-268 = assay: Cytotoxicity against human SF268 cells after 72 hrs by MTS reduction assay; settings: SF-268, 72 h
NCI-H460 = assay: Cytotoxicity against human NCI-H460 cells after 72 hrs by MTS reduction assay; settings: NCI-H460, 72 h
KB = assay: Cytotoxicity against human KB cells

Row | SMILES | IC50 (MCF7) | IC50 (SF-268) | IC50 (NCI-H460) | IC50 (KB)
1 | CC(C)=CCC/C(C)=C/CC/C(C)=C/CC/C=C(\C)CC/C=C(\C)CCC=C(C)C | > 50 µM | > 50 µM | > 50 µM | 
2 | COc1cc(O)c2c(=O)c(OC)c(-c3ccccc3)oc2c1OC | > 50 µM | > 50 µM | > 50 µM | 
3 | CO[C@H]1CC2=C(C(=O)C[C@@H](c3ccccc3)O2)[C@@H]2CC(=O)O[C@H]12 [7-O-METHYLCRYPTOCHINONE B] | > 50 µM | > 50 µM | > 50 µM | 
4 | CO[C@H]1CC2=C(C(=O)C[C@@H](c3ccccc3)O2)[C@H]2CC(=O)O[C@@H]12 [7-O-METHYLCRYPTOCHINONE A] | > 50 µM | > 50 µM | > 50 µM | 
5 | COc1c(O)ccc(C(=O)/C=C/c2ccccc2)c1O [LARREIN] | > 50 µM | > 50 µM | > 50 µM | 
6 | COc1cc(C=O)ccc1O [VANILLIN] | > 50 µM | > 50 µM | > 50 µM | 
7 | COc1cc(O)c2c(c1)O[C@H](c1ccccc1)CC2=O [PINOSTROBIN] | > 50 µM | > 50 µM | > 50 µM | 
8 | O=C1C[C@H]2C3=C(C[C@H](O)[C@H]2O1)O[C@H](c1ccccc1)CC3=O [CRYPTOCHINONE B] | > 50 µM | > 50 µM | > 50 µM | 
9 | COC(=O)C[C@H]1CC=CC(=O)/C1=C(O)/C=C/c1ccccc1 [INFECTOCARYONE] | 24.3 µM | 3.7 µM | 11 µM | 1.7 µM
10 | Cc1c2oc3c(C)ccc(C(=O)N[C@@H]4C(=O)N[C@H](C(C)C)C(=O)N5CCC[C@H]5C(=O)N(C)CC(=O)N(C)[C@@H](C(C)C)C(=O)O[C@@H]4C)c3nc-2c(C(=O)N[C@@H]2C(=O)N[C@H](C(C)C)C(=O)N3CCC[C@H]3C(=O)N(C)CC(=O)N(C)[C@@H](C(C)C)C(=O)O[C@@H]2C)c(N)c1=O [DACTINOMYCIN] (I: T[dV]P[Sar][NMeV] / II: T[dV]P[Sar][NMeV]; ester I:1-I:C, II:1-II:C; linker I:N-II:N via Actinocin(1to9)) | 0.103 µM | 0.016 µM | 0.008 µM | 
11 | COc1cc2oc(-c3ccccc3)cc(=O)c2c(O)c1OC [MOSLOFLAVONE] | > 50 µM | > 50 µM | > 50 µM | 
12 | O=C1C[C@@H]2C3=C(C=C[C@@H]2O1)O[C@@H](c1ccccc1)CC3=O [CRYPTOCARYANONE A] | 5.1 µM | 5 µM | 4.3 µM | 2.5 µM
13 | CO[C@@H]1CC2=C(C(=O)CC(c3ccccc3)O2)[C@H]2CC(=O)O[C@H]21 (stereo not given in full) | > 50 µM | > 50 µM | > 50 µM | 
14 | CC1=C(C)C(=O)C(CC[C@](C)(O)CCC[C@H](C)CCC[C@H](C)CCCC(C)C)=C(C)C1=O | > 50 µM | > 50 µM | 37.3 µM | 
15 | O=C1C[C@@H]2C3=C(C[C@H](O)[C@@H]2O1)O[C@H](c1ccccc1)CC3=O [CRYPTOCHINONE A] | > 50 µM | > 50 µM | > 50 µM | 
16 | COc1cc(O)c2c(=O)c(OC)c(-c3ccccc3)oc2c1 | > 50 µM | > 50 µM | > 50 µM | 
